molecular target: T1, MAGL protein (Homo sapiens, UniProt Q99685); assay: 2-AG assay: MAGL inhibitory activity by hydrolysis of 2-arachidonoylglycerol to arachidonic acid, followed by mass spectrometry; format: biochemical; conditions: 8 μM 2-arachidonoylglycerol, 15 min preincubation, 30 min reaction at RT, RapidFire MS readout
T1 sequence (Q99685 1-303): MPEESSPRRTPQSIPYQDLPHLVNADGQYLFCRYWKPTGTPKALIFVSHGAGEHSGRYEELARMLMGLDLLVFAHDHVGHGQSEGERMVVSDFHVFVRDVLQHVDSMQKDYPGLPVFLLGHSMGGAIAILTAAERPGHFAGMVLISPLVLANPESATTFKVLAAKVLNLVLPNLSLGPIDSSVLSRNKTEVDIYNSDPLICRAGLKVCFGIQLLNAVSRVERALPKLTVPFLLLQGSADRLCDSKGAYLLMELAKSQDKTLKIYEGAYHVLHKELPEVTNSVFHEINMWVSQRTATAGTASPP
Procedure, shortened: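 Activity was measured by RapidFire SPE–triple-quad MS as the ratio of arachidonic acid to d8-arachidonic acid after 2-AG hydrolysis (8 μM substrate, 30 min, RT, acetonitrile quench). Compounds, tested from 12.5 μM down to […], were first preincubated 15 min with MAGL in TRIS/EDTA/Tween-20 buffer containing 2.5% DMSO.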

Compound | IC50 [nM]
O=C(N1CC2(CC(Oc3ccc(F)cn3)C2)C1)N1CC2(CC(c3nc(C4CC4)n[nH]3)C2)C1 [compound 434] | 5.52
CCc1ccc(C(=O)N2CCN(C(=O)N3CC4(CC(c5nnc(C6CC6)[nH]5)C4)C3)CC2)cc1 [compound 869] | 115
O=C(N1CC2(CC(c3nc(C4CC4)n[nH]3)C2)C1)N1CC2(CC(C(F)c3ccc(C(F)(F)F)nc3)C2)C1 (stereo not drawn) [compound 845] | 9.83
O=C(N1CC2(CC(Oc3ncc(C(F)(F)F)cc3F)C2)C1)N1CC2(CC(c3nc(C4CC4)n[nH]3)C2)C1 [compound 665] | 0.23
Cc1nc(C)n(-c2ccc(C3CN(C(=O)N4CC5(CC(c6nnc(C7CC7)[nH]6)C5)C4)C3)cc2)n1 [compound 841] | 10.6
CS(=O)(=O)c1cc(Cl)ccc1-c1ccc(C2CN(C(=O)N3CC4(CC(c5ncn[nH]5)C4)C3)C2)cc1 [compound 454] | 129
O=C(N1CC(c2ccc(S(=O)(=O)C(F)(F)F)cc2)C1)N1CC2(CC(c3nnc(C4CC4)[nH]3)C2)C1 [compound 243] | 0.57
COc1cc(C(F)(F)F)ccc1COC1CN(C(=O)N2CC3(CC(c4nnc(C5CC5)[nH]4)C3)C2)C1 [compound 307] | 0.44
O=C(N1CC2(CCC(OCC3(C(F)(F)F)CC3)CC2)C1)N1CC2(CC(c3nnc(C4CC4)[nH]3)C2)C1 [compound 65] | 1.46
O=C(N1CC2(CC(c3nc(C4CC4)n[nH]3)C2)C1)N1CC2(CN(Cc3cnc(C(F)(F)F)o3)C2)C1 [compound 642] | 27.5
O=C(N1CCC(OCc2ccc(C(F)(F)F)cc2F)CC1)N1CC2(CC(c3nc(C4CC4)n[nH]3)C2)C1 [Example 906, [6-(3-cyclopropyl-1H-1,2,4-triazol-5-yl)-2-azaspiro[3.3]heptan-2-yl]-[4-[2-fluoro-4-(trifluoromethyl)benzyl]oxypiperidino]methanone] | 5.61
O=C(N1CC2(CC(Cc3ccc(C(F)(F)F)nc3)C2)C1)N1CC2(CC(c3ncn[nH]3)C2)C1 [compound 986] | 2360
O=C(N1CC2(CC(c3nc(C4CC4)n[nH]3)C2)C1)N1CC2(CN(Cc3ncc(C(F)(F)F)[nH]3)C2)C1 [compound 641] | 67.4
O=C(N1CC2(CC(Cc3ccnc(C(F)(F)F)n3)C2)C1)N1CC2(CC(c3nc(C4CC4)n[nH]3)C2)C1 [compound 402] | 0.95
O=C(N1CC2(CC(c3nnc(C4CC4)[nH]3)C2)C1)N1CC2(C1)CN(S(=O)(=O)C13CC(C(F)(F)F)(C1)C3)C2 [compound 135] | 25.3
O=C(N1CC2(CC(Cc3cc(F)cc(S(=O)(=O)C(F)(F)F)c3)C2)C1)N1CC2(CC(c3nc(C4CC4)n[nH]3)C2)C1 [compound 654] | 0.04
NS(=O)(=O)c1ccc(C2CN(C(=O)N3CC4(CC(c5nnc(C6CC6)[nH]5)C4)C3)C2)cc1 [compound 380] | 64.2
O=C(N1CC2(CCC(Cc3ncc(F)cc3F)CC2)C1)N1CC2(CC(c3nnc(C4CC4)[nH]3)C2)C1 [compound 142] | 0.84
O=C(N1CC2(CC(COc3ccc(C(F)(F)F)cn3)C2)C1)N1CC2(CC(c3nc(C4CC4)n[nH]3)C2)C1 [compound 970] | 0.16
N=[S@](=O)(c1ccc(CC2CC3(C2)CN(C(=O)N2CC4(CC(c5nnc(C6(N)CC6)[nH]5)C4)C2)C3)cc1)C(F)(F)F (stereo in doubt) [Example 474, [6-[5-(1-aminocyclopropyl)-4H-1,2,4-triazol-3-yl]-2-azaspiro[3.3]heptan-2-yl]-[6-[[4-(trifluoromethyl-sulfonimidoyl)phenyl]methyl]-2-azaspiro[3.3]heptan-2-yl]methanone] | 4.59
O=C(N1CC2(CC(Cc3ccc(C(F)(F)F)cn3)C2)C1)N1CC2(CC(c3nc(C4CC(F)(F)C4)n[nH]3)C2)C1 [compound 661] | 21.9
O=C(N1CC2(CC(Cc3ccc(S(=O)(=O)C(F)(F)F)cn3)C2)C1)N1CC2(CC(c3nc(C4(O)CC4)n[nH]3)C2)C1 [compound 616] | 1.01
O=C(N1CC(c2ccc(OC(F)(F)F)c(F)c2)C1)N1CC2(CC(c3nnc(C4(O)CC4)[nH]3)C2)C1 [compound 242] | 2.23
O=C(N1CC2(CC(Cc3cc(C(F)(F)F)nn3CC(F)(F)F)C2)C1)N1CC2(CC(c3nc(C4CC4)n[nH]3)C2)C1 [compound 679] | 0.15
O=C(N1CC2(CC(Cc3n[nH]cc3C(F)(F)F)C2)C1)N1CC2(CC(c3nc(C4CC4)n[nH]3)C2)C1 [compound 747] | 0.09
N=[S@](=O)(c1cccc(CC2CC3(C2)CN(C(=O)N2CC4(CC(c5nnc(C6CC6)[nH]5)C4)C2)C3)c1)C(F)(F)F (single isomer, unassigned) [compound 126] | 0.06
N=S(=O)(c1ccc(CC2CC3(C2)CN(C(=O)N2CC4(CC(c5nc(C6CC6)n[nH]5)C4)C2)C3)nc1)C(F)(F)F (stereo not drawn) [compound 739] | 1.26

Compound | IC50 [nM]
O=C(N1CC2(CC(Cc3ccc(OC(F)(F)F)cn3)C2)C1)N1CC2(CC(c3nnc(C4CC4)[nH]3)C2)C1 [compound 8] | 0.13
COCn1cnc(-c2ccccc2CN2CC3(C2)CN(C(=O)N2CC4(CC(c5nnc(C6CC6)[nH]5)C4)C2)C3)n1 [compound 174] | 40.7
N#Cc1ccc(CC2CC3(C2)CN(C(=O)N2CC4(CC(c5nc(C6CC6)n[nH]5)C4)C2)C3)cc1C(F)(F)F [compound 590] | 0.34
O=C(O)c1ccccc1CN1CC2(C1)CN(C(=O)N1CC3(CC(c4nnc(C5CC5)[nH]4)C3)C1)C2 [Example 172, 2-[[2-[6-(5-cyclopropyl-4H-1,2,4-triazol-3-yl)-2-azaspiro[3.3]heptane-2-carbonyl]-2,6-diazaspiro[3.3]heptan-6-yl]methyl]benzoic Acid] | 502
NC(=O)[C@@H]1CC(F)(F)CCN1c1ccc(C2CN(C(=O)N3CC4(CC(c5nnc(C6CC6)[nH]5)C4)C3)C2)cc1 [Example 395, (2S)-1-[4-[1-[6-(5-cyclopropyl-4H-1,2,4-triazol-3-yl)-2-azaspiro[3.3]heptane-2-carbonyl]azetidin-3-yl]phenyl]-4,4-difluoro-piperidine-2-carboxamide] | 1.28
O=C(N1CC(c2ccc(C3(C(F)(F)F)CC3)cn2)C1)N1CC2(CC(c3nnc(C4CC4)[nH]3)C2)C1 [compound 236] | 4.52
O=C(N1CC2(CC(Cc3ccc4[nH]ncc4n3)C2)C1)N1CC2(CC(c3nc(C4(O)CC4)n[nH]3)C2)C1 [compound 692] | 20.1
O=C(N1CC(C23CC(Cn4cc(C(F)(F)F)ccc4=O)(C2)C3)C1)N1CC2(CC(c3nc(C4CC4)n[nH]3)C2)C1 [compound 946] | 1.05
O=C(N1CC2(CC(Cc3cnc(C(F)(F)F)cn3)C2)C1)N1CC2(CC(c3nc(C4CC(F)(F)C4)n[nH]3)C2)C1 [compound 465] | 114
O=C(N1CC2(CC(Cn3cc(C(F)(F)F)ncc3=O)C2)C1)N1CC2(CC(c3nc(C4CC4)n[nH]3)C2)C1 [compound 960] | 5.16
O=C(N1CC2(CC(Cc3ccc(OC(F)(F)F)nc3)C2)C1)N1CC2(CC(c3nc(C4CC(F)(F)C4)n[nH]3)C2)C1 [compound 566] | 14.7
O=C(N1CC2(CC(c3nc(C4CC4)n[nH]3)C2)C1)N1CC2(CN(Cc3cc[nH]n3)C2)C1 [compound 799] | 1330
O=C(N1CC2(CC(c3nc(C4CC4)n[nH]3)C2)C1)N1CC2(CN(Cc3nccn3CC(F)(F)F)C2)C1 [compound 698] | 55.9
O=C(N1CC2(CC(Cc3ccc4c(C(F)(F)F)cn(CCO)c4n3)C2)C1)N1CC2(CC(c3nc(C4CC4)n[nH]3)C2)C1 [Example 858] | 0.02
CS(=O)(=O)C1(c2ccc(C3CN(C(=O)N4CC5(CC(c6nc(C7CC7)n[nH]6)C5)C4)C3)cc2)CC1 [compound 776] | 5.9
O=C(N1CC2(CC(c3nc(C4CC4)n[nH]3)C2)C1)N1CC2(CN(Cc3ncc(C(F)F)s3)C2)C1 [compound 624] | 8.21
O=C(N1CC2(CC(Cn3cnc(C(F)(F)F)n3)C2)C1)N1CC2(CC(c3nc(C4CC(F)(F)C4)n[nH]3)C2)C1 [compound 441] | 414
O=C(N1CC2(CC(Cn3cc(C(F)(F)F)ccc3=O)C2)C1)N1CC2(CC(c3nc(C4(O)CC4)n[nH]3)C2)C1 [compound 621] | 3.62
CS(=O)(=O)c1ccc(-c2ccc(C3CN(C(=O)N4CC5(CC(c6ncn[nH]6)C5)C4)C3)cc2)c(Cl)c1 [compound 981] | 1770
Cc1cc(C2CC2)nn1-c1ccc(C2CN(C(=O)N3CC4(CC(c5nc(C6(O)CC6)n[nH]5)C4)C3)C2)cc1 [compound 821] | 2
O=C(N1CC(C23CC(COc4ccc(C(F)(F)F)cn4)(C2)C3)C1)N1CC2(CC(c3nc(C4CC4)n[nH]3)C2)C1 [compound 941] | 0.04
O=C(N1CC2(CC(Cc3nc(C(F)(F)F)cs3)C2)C1)N1CC2(CC(c3nc(C4COC4)n[nH]3)C2)C1 [compound 783] | 33.7
CS(=O)(=O)c1ccc(CC2CC3(C2)CN(C(=O)N2CC4(CC(c5nnc(C6CCC6)[nH]5)C4)C2)C3)cc1 [compound 14] | 14.8
COC(=O)C(C)(C)c1cccc(OC2CN(C(=O)N3CC4(CC(c5nnc(C6CC6)[nH]5)C4)C3)C2)c1 [compound 318] | 7.3
O=C(N1CC(c2ccc(-n3ccc(C(F)(F)F)cc3=O)cc2)C1)N1CC2(CC(c3nnc(C4CC4)[nH]3)C2)C1 [compound 284] | 1.59
O=C(N1CC2(CC(Cn3cc(S(=O)(=O)C(F)(F)F)cn3)C2)C1)N1CC2(CC(c3nc(C4CC4)n[nH]3)C2)C1 [compound 951] | 0.28
O=C(N1CC2(CC(Cc3cc(C(F)(F)F)ccn3)C2)C1)N1CC2(CC(c3nnc(C4CC4)[nH]3)C2)C1 [compound 118] | 0.19

Source: patent US20250099448A1, “HETEROCYCLIC COMPOUNDS” (Hoffmann-La Roche Inc., priority 2022, published 2025)
